Data: publication PMC10800876, “Evaluation of proline-rich antimicrobial peptides as potential lead structures for novel antimycotics against Cryptococcus neoformans” (Frontiers in Microbiology, 2024)
In brackets after ≈: the same amount, converted by molar mass. Where two headings read alike, the source gives them in different places. Non-standard residues stand in square brackets, D forms with d. Residues, ends and D or L forms follow the SMILES beside them.

Legend:
[1] = test system: C. neoformans strains 1841, H99, and KN99α; assay: Broth microdilution assay (MIC); assay type: cell-based, Cryptococcus neoformans
C. neoformans 1841 = assay: Antifungal activity assay (CFU on SAB agar); assay type: cell-based, Cryptococcus neoformans; details: treatment 3 h, 30 °C, mean ± SD, n = 4; for cell count C. neoformans 1841, 24 h: CFU counted after 24 h; for cell count C. neoformans 1841, 48 h: CFU counted after 48 h
C. neoformans H99 = assay: Antifungal activity assay (CFU on SAB agar); assay type: cell-based, Cryptococcus neoformans; details: treatment 3 h, 30 °C, mean ± SD, n = 4; for cell count C. neoformans H99, 24 h: CFU counted after 24 h; for cell count C. neoformans H99, 48 h: CFU counted after 48 h
C. neoformans KN99α = assay: Antifungal activity assay (CFU on SAB agar); assay type: cell-based, Cryptococcus neoformans; details: treatment 3 h, 30 °C, mean ± SD, n = 4; for cell count C. neoformans KN99α, 24 h: CFU counted after 24 h; for cell count C. neoformans KN99α, 48 h: CFU counted after 48 h
[2] = test system: C. neoformans 1841 (serotype D); assay: microbe, parasite or virus in culture; details: Cryptococcus neoformans
[3] = test system: C. neoformans H99 (serotype A); assay: microbe, parasite or virus in culture; details: Cryptococcus neoformans
[4] = test system: C. neoformans KN99α (serotype A, mating type MATα); assay: microbe, parasite or virus in culture; details: Cryptococcus neoformans
[5] = test system: C. neoformans 1841 (serotype D)
[6] = test system: C. neoformans H99 (serotype A)
[7] = test system: C. neoformans KN99α (serotype A, mating type MATα)
[8] = Cryptococcus neoformans, read-out: MIC
[9] = 24 h, pH 7.5, read-out: MIC (μmol/L) 1841 24 h
[10] = 24 h, read-out: MIC (mg/L) 1841 24 h
[11] = 48 h, pH 7.5, read-out: MIC (μmol/L) 1841 48 h
[12] = 48 h, read-out: MIC (mg/L) 1841 48 h
[13] = 24 h, read-out: MIC (mg/L) H99 24 h
[14] = 24 h, read-out: MIC (μmol/L) H99 24 h
[15] = 48 h, read-out: MIC (mg/L) H99 48 h
[16] = 48 h, read-out: MIC (μmol/L) H99 48 h
[17] = 24 h, read-out: MIC (mg/L) KN99α 24 h
[18] = 24 h, read-out: MIC (μmol/L) KN99α 24 h
[19] = 48 h, read-out: MIC (mg/L) KN99α 48 h
[20] = 48 h, read-out: MIC (μmol/L) KN99α 48 h
[21] = KN99α (serotype A, mating type MATα, 24 h)
[22] = KN99α (serotype A, mating type MATα, 48 h)

| Compound | MIC [1] [µg/mL] | MIC [1, 8] [µM] | cell count C. neoformans 1841, 24 h (C. neoformans 1841; 0.25 µmol/L) | cell count C. neoformans 1841, 48 h (C. neoformans 1841; 0.25 µmol/L) | cell count C. neoformans 1841, 24 h (C. neoformans 1841; 2.5 µmol/L) | cell count C. neoformans 1841, 48 h (C. neoformans 1841; 2.5 µmol/L) | cell count C. neoformans 1841, 24 h (C. neoformans 1841; 25 µmol/L) | cell count C. neoformans 1841, 48 h (C. neoformans 1841; 25 µmol/L) | cell count C. neoformans H99, 24 h (C. neoformans H99; 0.25 µmol/L) | cell count C. neoformans H99, 48 h (C. neoformans H99; 0.25 µmol/L) | cell count C. neoformans H99, 24 h (C. neoformans H99; 2.5 µmol/L) | cell count C. neoformans H99, 48 h (C. neoformans H99; 2.5 µmol/L) | cell count C. neoformans H99, 24 h (C. neoformans H99; 25 µmol/L) | cell count C. neoformans H99, 48 h (C. neoformans H99; 25 µmol/L) | cell count C. neoformans KN99α, 24 h (C. neoformans KN99α; 0.25 µmol/L) | cell count C. neoformans KN99α, 48 h (C. neoformans KN99α; 0.25 µmol/L) | cell count C. neoformans KN99α, 24 h (C. neoformans KN99α; 2.5 µmol/L) | cell count C. neoformans KN99α, 48 h (C. neoformans KN99α; 2.5 µmol/L) | cell count C. neoformans KN99α, 24 h (C. neoformans KN99α; 25 µmol/L) | cell count C. neoformans KN99α, 48 h (C. neoformans KN99α; 25 µmol/L) | also measured |
| --- | --- | --- | --- | --- | --- | --- | --- | --- | --- | --- | --- | --- | --- | --- | --- | --- | --- | --- | --- | --- | --- |
| OC(Cn1cncn1)(Cn1cncn1)c1ccc(F)cc1F [Fluconazole, fluconazole, reference compound] | 4 to 32 | 13 to 105 | 2.5 ± 0.0 x 10^4 CFU/mL | 2.5 ± 0.0 x 10^4 CFU/mL | 2.7 ± 0.2 x 10^4 CFU/mL | 2.7 ± 0.2 x 10^4 CFU/mL | 1.9 ± 0.3 x 10^4 CFU/mL | 1.9 ± 0.3 x 10^4 CFU/mL | 3.4 ± 0.5 x 10^4 CFU/mL | 3.8 ± 0.3 x 10^4 CFU/mL | 3.4 ± 0.4 x 10^4 CFU/mL | 3.5 ± 0.4 x 10^4 CFU/mL | 3.3 ± 0.8 x 10^4 CFU/mL | 3.5 ± 0.8 x 10^4 CFU/mL | 2.9 ± 0.5 x 10^4 CFU/mL | 3.0 ± 0.6 x 10^4 CFU/mL | 3.3 ± 0.6 x 10^4 CFU/mL | 3.4 ± 0.7 x 10^4 CFU/mL | 3.2 ± 0.5 x 10^4 CFU/mL | 3.3 ± 0.5 x 10^4 CFU/mL | MIC [2, 9]: 105 µmol/L; MIC [2, 10]: 32 mg/L; MIC [2, 11]: 105 µmol/L; MIC [2, 12]: 32 mg/L; MIC [3, 13]: 16 mg/L; MIC [3, 14]: 53 µmol/L; MIC [3, 15]: 16 to 32 mg/L; MIC [3, 16]: 53 to 105 µmol/L; MIC [4, 17]: 4 mg/L; MIC [4, 18]: 13 µmol/L; MIC [4, 19]: 8 mg/L; MIC [4, 20]: 26 µmol/L |
| Nc1[nH]c(=O)ncc1F [Flucytosine, flucytosine, reference compound] | ≥ 64 | ≥ 496 | 2.2 ± 0.1 x 10^4 CFU/mL | 2.2 ± 0.1 x 10^4 CFU/mL | 2.4 ± 0.2 x 10^4 CFU/mL | 2.4 ± 0.2 x 10^4 CFU/mL | 2.4 ± 0.0 x 10^4 CFU/mL | 2.4 ± 0.0 x 10^4 CFU/mL | 3.1 ± 0.8 x 10^4 CFU/mL | 3.2 ± 0.7 x 10^4 CFU/mL | 3.7 ± 0.4 x 10^4 CFU/mL | 3.9 ± 0.3 x 10^4 CFU/mL | 3.1 ± 0.5 x 10^4 CFU/mL | 3.3 ± 0.6 x 10^4 CFU/mL | 3.4 ± 0.7 x 10^4 CFU/mL | 3.4 ± 0.8 x 10^4 CFU/mL | 3.1 ± 0.5 x 10^4 CFU/mL | 3.2 ± 0.5 x 10^4 CFU/mL | 3.3 ± 0.5 x 10^4 CFU/mL | 3.3 ± 0.5 x 10^4 CFU/mL | MIC [2, 9]: 496 µmol/L; MIC [2, 10]: 64 mg/L; MIC [2, 11]: 992 µmol/L; MIC [2, 12]: 128 mg/L; MIC [3, 13]: 64 mg/L; MIC [3, 14]: 496 µmol/L; MIC [3, 15]: > 128 mg/L; MIC [3, 16]: > 992 µmol/L; MIC [4, 17]: 128 mg/L; MIC [4, 18]: 992 µmol/L; MIC [4, 19]: > 128 mg/L; MIC [4, 20]: > 992 µmol/L |
| CC[C@H](C)[C@H](NC(=O)[C@@H](CCCNC(=N)N)NC(=O)[C@H](CCCNC(=N)N)NC(=O)[C@@H]1CCCN1C(=O)[C@@H]1CCCN1C(=O)[C@H](CCCNC(=N)N)NC(=O)[C@@H]1CCCN1C(=O)[C@H](CCCNC(=N)N)NC(=O)[C@@H]1CCCN1C(=O)[C@H](CC(C)C)NC(=O)[C@H](Cc1ccc(O)cc1)NC(=O)[C@@H]1CCCN1C(=O)[C@@H]1CCCN1C(=O)[C@H](CCCCN)NC(=O)[C@H](CC(=O)O)NC(=O)[C@@H](N)C(C)C)C(=O)N[C@@H](Cc1ccc(O)cc1)C(=O)N[C@@H](CC(N)=O)C(=O)N[C@H](CCCNC(=N)N)C(N)=O [Onc112] (H-VDKPPYLPRPRPPR[dR]IYN[dR]-NH2) | – | – | – | – | – | – | – | – | – | – | – | – | – | – | – | – | – | – | – | – | MIC ([1]; strains 1841, H99, and KN99α, 24 h): 1.6 to 6.7 µM; MIC (μmol/L) 1841 24 h ([5]; 1841 (serotype D, 24 h, pH 7.5)): 3.3 µmol/L (≈ 7.89 µg/mL); MIC (μmol/L) 1841 48 h ([5]; 1841 (serotype D, 48 h, pH 7.5)): 6.7 µmol/L (≈ 16 µg/mL); MIC (mg/L) H99 24 h ([6]; H99 (serotype A, 24 h)): 8 to 16 mg/L; MIC (μmol/L) H99 24 h ([6]; H99 (serotype A, 24 h)): 3.3 to 6.7 µmol/L; MIC (μmol/L) H99 48 h ([6]; H99 (serotype A, 48 h)): 6.7 µmol/L (≈ 16 µg/mL); MIC (mg/L) KN99α 24 h [7, 21]: 8 to 16 mg/L; MIC (μmol/L) KN99α 24 h [7, 21]: 3.3 to 6.7 µmol/L; MIC (mg/L) KN99α 48 h [7, 22]: 16 to 32 mg/L; MIC (μmol/L) KN99α 48 h [7, 22]: 6.7 to 13 µmol/L |
